Data: US20190364896A1, “SYNERGISTIC WEED CONTROL FROM APPLICATIONS OF PYRIDINE CARBOXYLIC ACID HERBICIDES AND ALS INHIBITORS” (Dow AgroSciences LLC, priority 2014, published 2019)
Several values for one entry are separate records, joined by “and”; a condition that tells them apart may be missing. Equal entries are not always repeated.

Columns and labels:
Assay in all cases: Postemergence herbicidal activity, greenhouse trial (visual injury 0-100%)
Type in all cases: in vivo
[1] = tested on: large crabgrass (Digitaria sanguinalis, DIGSA)
[2] = tested on: blackgrass (Alopecurus myosuroides, ALOMY)
Method in brief: (§1)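 Seedlings were raised 7-36 d in a greenhouse, then treated postemergence at the second or third true leaf stage. Mixtures were applied overhead at 187 L/ha, and plants were sub-irrigated to avoid wash-off. Injury was rated visually 20-22 d later.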

[3] = tested on: grain sorghum (Sorghum vulgare, SORVU)
Method in brief: as §1

[4] = tested on: winter rape (Brassica napus, BRSNW)

Nc1c(F)c(-c2ccc3cc[nH]c3c2F)nc(C(=O)O)c1Cl [Compound 1]
% visual injury Obs ([1]; 5 g ae/ha): 5% and 0% | % visual injury Obs ([1]; 10 g ae/ha): 10% | % visual injury Obs ([2]; 5 g ae/ha): 0% | % visual injury Obs ([2]; 10 g ae/ha): 0% | % visual injury Obs ([2]; ALOMY, Compound 1 5 g ae/ha): 0% | % visual injury Obs ([2]; ALOMY, Compound 1 10 g ae/ha): 0% | % visual injury Obs ([3]; 5 g ae/ha): 10% and 0% | % visual injury Obs ([3]; 10 g ae/ha): 50% | % visual injury Obs ([3]; SORVU, Compound 1 5 g ae/ha): 0% and 10% | % visual injury Obs ([3]; SORVU, Compound 1 10 g ae/ha): 50% | % visual injury Obs ([4]; 5 g ae/ha): 30% and 40% | % visual injury Obs ([4]; 10 g ae/ha): 45% | % visual injury Obs ([4]; BRSNW, Compound 1 5 g ae/ha): 50% and 40% | % visual injury Obs ([4]; BRSNW, Compound 1 10 g ae/ha): 45%
